{"source": "patent US10266520B2", "about": "“Bisamidinium-based inhibitors for the treatment of myotonic dystrophy” (The Board of Trustees of the University of Illinois, priority 2014, dated 2019)", "target": "(CUG)12", "experiment": "Isothermal titration calorimetry (ITC) binding to (CUG)12", "conditions": "25° C., read-out: KD, binding affinity toward (CUG)12", "description": "The alkyne and azide moieties were chosen because of their small size, excellent stability, and ultimate bioorthogonality. […] This finding enables the rapid development of a wide range of functional derivatives of ligand 1a using the [3+2] alkyne-azide cycloaddition (‘click reaction’) of 1b and 1c.\nThe ligand stock solution (10 mM in water). MOPS buffer (100 mM; pH 7.0±0.2), and NaCl (5000 mM) were prepared. The ligand solution (1 mL) contained of 0.5 mM of ligand, 20 mM of MOPS buffer, and 150 mM of NaCl. The RNA solution (2 mL) contained 0.02 mM of RNA, 20 mM of MOPS buffer, and 150 mM of NaCl. The resulting RNA solution was heated in a water bath at 90° C. for 5 min, then allowed to cool to room temperature for 2 h.\nITC measurements were performed at 25° C. on a MicroCal VP-ITC calorimeter (Northampton, Mass.). A typical experiment consisted of titrating 10 μL of a ligand solution (500 μM) from a 250 μL syringe (stirred at 300 rpm) into a sample cell containing 1.42 mL of a RNA solution (10 μM) with total 28 injections. The initial delay prior to the first injection was 60 s. The duration of each injection was 24 s and the delay between injections was 300 s. […] Binding parameters such as the dissociation constant (KD), enthalpy change (ΔH), and entropy change (ΔS) were determined by fitting the experimental binding isotherms with various model. […]"}
{"smiles": "N=C(NCCCCNc1nc(N)nc(N)n1)c1ccc(C(=N)NCCCCNc2nc(N)nc(N)n2)cc1", "note": "[Compound 1a]", "values": [{"measurement": "Kd", "value": 8, "unit": "µM"}]}
